According to US20170107179A1 (Tetraphase Pharmaceuticals, Inc., priority 2010, published 2017):
Converted amounts (≈) assume the structure as drawn. Like-named read-outs stand apart in the source and are kept apart here.

Key:
[1] = test system: Gram-positive pathogens; assay: Broth microdilution MIC, respiratory/skin pathogens (Table 12); conditions: E. faecalis, VAN S (n = 53)
[2] = test system: Gram-negative and Gram-positive organisms (clinical isolates); assay: Broth microdilution MIC against clinical isolates (CLSI M7-A8), Table 9; assay type: cell-based
[3] = test system: S. maltophila; assay: Broth microdilution MIC by tetracycline resistance phenotype (Table 10); assay type: cell-based; design: unit not given beside the values
[4] = test system: Viridans group streptococci; assay: as above; assay type: cell-based; design: unit not given beside the values
[5] = test system: Legionella pneumophila, 70 isolates, serogroups 1-6; assay: microbe, parasite or virus in culture; assay type: cell-based
[6] = test system: E. coli DH10B EC971 LacZ; assay: MIC, E. coli DH10B recombinantly expressing control gene
[7] = test system: evaluated pathogens by tetracycline phenotype; assay: Broth microdilution MIC by tetracycline phenotype (Table 14)
[8] = test system: E. coli DH10B EC1153 Tet(X); assay: MIC, E. coli DH10B recombinantly expressing tetracycline-resistance gene; conditions: arabinose-induced, ampicillin in medium
[9] = test system: E. coli DH10B EC969 TetM; assay: as above; conditions: arabinose-induced, ampicillin in medium
[10] = test system: E. coli DH10B EC970 TetK; assay: as above; conditions: arabinose-induced, ampicillin in medium
[11] = test system: E. coli DH10B EC1082 TetA; assay: as above; conditions: arabinose-induced, ampicillin in medium
[12] = test system: E. coli DH10B EC1083 TetB; assay: as above; conditions: arabinose-induced, ampicillin in medium
[13] = test system: S. pneumoniae strain SP514; assay: Immunocompetent CD-1 murine lung infection model; assay type: in vivo; conditions: immunocompetent CD-1 mice, SP514, orally dosed 30 mg/kg at 5, 24 and 36 hours post-infection (FIG. 2)
Protocol: Compound 102 was tested in an immunocompetent CD-1 murine model of lung infection challenged with S. pneumoniae strain SP514.

[14] = Streptococcus pneumoniae, S. pneumoniae, TET NS, N=46
[15] = Klebsiella aerogenes, Enterobacter aerogenes, n=30
[16] = Klebsiella pneumoniae, Klebsiella pneumonia, n=27
[17] = Staphylococcus aureus, Staphylococcus aureus (MRSA PVL+), n=30, read-out: MIC50
[18] = Staphylococcus aureus, Staphylococcus aureus (MRSA PVL+), n=30, read-out: MIC90
[19] = Staphylococcus aureus, Staphylococcus aureus MRSA (includes MRSA PVL+ group), n=105, read-out: MIC50
[20] = Staphylococcus aureus, Staphylococcus aureus MRSA (includes MRSA PVL+ group), n=105, read-out: MIC90
[21] = Stenotrophomonas maltophilia, n=29
[22] = Streptococcus intermedius, n=30
[23] = Enterococcus faecium, E. faecium, TET NS, N=40
[24] = Enterococcus faecium, E. faecium, TET S, N=60
[25] = Streptococcus agalactiae, S. agalactiae, TET NS, N=39
[26] = Streptococcus agalactiae, S. agalactiae, TET S, N=11
[27] = Streptococcus pneumoniae, S. pneumoniae, TET S, N=54
[28] = Streptococcus pyogenes, S. pyogenes, TET S, N=44

C[C@@H](O)[C@H]1C(=O)N2C(C(=O)O)=C(SCCN=CN)C[C@H]12 [Imipenern]
MIC50 [1]: 1 µg/mL (≈ 3.34 µM)
MIC90 [1]: 1 µg/mL (≈ 3.34 µM)

CN(C)[C@@H]1C(O)=C(C(N)=O)C(=O)[C@@]2(O)C(O)=C3C(=O)c4c(O)cccc4[C@@](C)(O)[C@H]3C[C@@H]12 [Tetracycline, tetracycline]
MIC50 [2]: 0.25 µg/mL (≈ 0.563 µM)
MIC90 [2]: > 8 µg/mL
MIC50 ([2]; Acinetobacter lwoffii): 0.5 µg/mL (≈ 1.13 µM)
MIC90 ([2]; Acinetobacter lwoffii): 4 µg/mL (≈ 9 µM)
MIC50 ([2]; Enterobacter cloacae): 4 µg/mL (≈ 9 µM)
MIC90 ([2]; Enterobacter cloacae): > 8 µg/mL
MIC50 ([2]; Escherichia coli): > 8 µg/mL
MIC90 ([2]; Escherichia coli): > 8 µg/mL
MIC50 ([2]; Klebsiella aerogenes): 1 µg/mL (≈ 2.25 µM)
MIC90 ([2]; Klebsiella aerogenes): 2 µg/mL (≈ 4.5 µM)
MIC50 ([2]; Klebsiella pneumoniae): 8 µg/mL (≈ 18 µM)
MIC90 ([2]; Klebsiella pneumoniae): > 8 µg/mL
MIC50 ([2]; Morganella morganii): 2 µg/mL (≈ 4.5 µM)
MIC90 ([2]; Morganella morganii): > 8 µg/mL
MIC50 ([2]; Proteus vulgaris): 8 µg/mL (≈ 18 µM)
MIC90 ([2]; Proteus vulgaris): > 8 µg/mL
MIC50 ([2]; Serratia marcescens): > 8 µg/mL
MIC90 ([2]; Serratia marcescens): > 8 µg/mL
MIC50 ([2]; Staphylococcus aureus): 0.25 µg/mL (≈ 0.563 µM)
MIC50 ([2]; Stenotrophomonas maltophilia): 8 µg/mL (≈ 18 µM)
MIC90 ([2]; Stenotrophomonas maltophilia): > 8 µg/mL
MIC50 ([2]; Streptococcus anginosus): 0.12 µg/mL (≈ 0.27 µM)
MIC90 ([2]; Streptococcus anginosus): > 4 µg/mL
MIC50 ([2]; Streptococcus intermedius): 0.25 µg/mL (≈ 0.563 µM)
MIC90 ([2]; Streptococcus intermedius): > 4 µg/mL
MIC50 ([2]; Streptococcus mitis): 0.5 µg/mL (≈ 1.13 µM)
MIC90 ([2]; Streptococcus mitis): > 4 µg/mL
MIC50 ([3]; TET NS, n=19): >8
MIC90 ([3]; TET NS, n=19): >8
MIC50 ([3]; TET S, n=10): 4
MIC90 ([3]; TET S, n=10): 4
MIC50 ([4]; TET NS, n=32): >4
MIC90 ([4]; TET NS, n=32): >4
MIC50 ([4]; TET S, n=65): 0.25
MIC90 ([4]; TET S, n=65): 0.5
MIC50 [5]: 4 µg/mL (≈ 9 µM)
MIC90 [5]: 8 µg/mL (≈ 18 µM)
MIC EC971 LacZ [6]: 2
MIC90 ([7]; F. faecalis, TET S, N=30): 500 µg/mL (≈ 1130 µM)
MIC50 [7, 14]: 16000 µg/mL (≈ 36000 µM)
MIC EC1153 Tet(X) [8]: >32
MIC EC969 TetM [9]: 64
MIC EC970 TetK [10]: 64
MIC EC1082 TetA [11]: >128
MIC EC1083 TetB [12]: >128

CN(C)c1cc(NC(=O)CNC(C)(C)C)c(O)c2c1C[C@H]1C[C@H]3[C@H](N(C)C)C(O)=C(C(N)=O)C(=O)[C@@]3(O)C(O)=C1C2=O [Tigecycline, tigecycline]
MIC50 ([2]; Acinetobacter lwoffii, n=29): 0.12 µg/mL (≈ 0.205 µM)
MIC90 ([2]; Acinetobacter lwoffii, n=29): 0.5 µg/mL (≈ 0.854 µM)
MIC50 ([2]; Enterobacter cloacae, n=29): 1 µg/mL (≈ 1.71 µM)
MIC90 ([2]; Enterobacter cloacae, n=29): 4 µg/mL (≈ 6.83 µM)
MIC50 ([2]; Escherichia coli, n=40): 0.5 µg/mL (≈ 0.854 µM)
MIC90 ([2]; Escherichia coli, n=40): 2 µg/mL (≈ 3.41 µM)
MIC50 ([2]; Kiebsielia oxytoca, n=30): 0.5 µg/mL (≈ 0.854 µM)
MIC90 ([2]; Kiebsielia oxytoca, n=30): 2 µg/mL (≈ 3.41 µM)
MIC50 [2, 15]: 0.5 µg/mL (≈ 0.854 µM)
MIC90 [2, 15]: 0.5 µg/mL (≈ 0.854 µM)
MIC50 [2, 16]: 2 µg/mL (≈ 3.41 µM)
MIC90 [2, 16]: 4 µg/mL (≈ 6.83 µM)
MIC50 ([2]; Morganella morganii, n=30): 2 µg/mL (≈ 3.41 µM)
MIC90 ([2]; Morganella morganii, n=30): 4 µg/mL (≈ 6.83 µM)
MIC50 ([2]; Proteus vulgaris, n=29): 2 µg/mL (≈ 3.41 µM)
MIC90 ([2]; Proteus vulgaris, n=29): 4 µg/mL (≈ 6.83 µM)
MIC50 ([2]; Salmonella species, n=30): 0.25 µg/mL (≈ 0.427 µM)
MIC90 ([2]; Salmonella species, n=30): 0.5 µg/mL (≈ 0.854 µM)
MIC50 ([2]; Serratia marcescens, n=30): 1 µg/mL (≈ 1.71 µM)
MIC90 ([2]; Serratia marcescens, n=30): 2 µg/mL (≈ 3.41 µM)
MIC50 [2, 17]: 0.12 µg/mL (≈ 0.205 µM)
MIC90 [2, 18]: 0.12 µg/mL (≈ 0.205 µM)
MIC50 [2, 19]: 0.13 µg/mL (≈ 0.222 µM)
MIC90 [2, 20]: 0.25 µg/mL (≈ 0.427 µM)
MIC50 [2, 21]: 0.5 µg/mL (≈ 0.854 µM)
MIC90 [2, 21]: 2 µg/mL (≈ 3.41 µM)
MIC50 ([2]; Streptococcus anginosus, n=20): 0.03 µg/mL (≈ 0.0512 µM)
MIC90 ([2]; Streptococcus anginosus, n=20): 0.06 µg/mL (≈ 0.102 µM)
MIC50 [2, 22]: 0.03 µg/mL (≈ 0.0512 µM)
MIC90 [2, 22]: 0.12 µg/mL (≈ 0.205 µM)
MIC50 ([2]; Streptococcus mitis, n=29): 0.03 µg/mL (≈ 0.0512 µM)
MIC90 ([2]; Streptococcus mitis, n=29): 0.12 µg/mL (≈ 0.205 µM)
MIC50 ([2]; Streptococcus sanguis, n=18): 0.03 µg/mL (≈ 0.0512 µM)
MIC90 ([2]; Streptococcus sanguis, n=18): 0.06 µg/mL (≈ 0.102 µM)
MIC50 ([4]; TET NS, n=32): 0.03
MIC90 ([4]; TET NS, n=32): 0.12
MIC50 ([4]; TET S, n=65): 0.03
MIC90 ([4]; TET S, n=65): 0.06
MIC EC971 LacZ ([6]; E. coli DH10B, arabinose-induced, ampicillin in medium): 0.0625
MIC50 [7, 23]: 0.06 µg/mL (≈ 0.102 µM)
MIC90 [7, 23]: 0.12 µg/mL (≈ 0.205 µM)
MIC50 [7, 24]: 0.06 µg/mL (≈ 0.102 µM)
MIC90 [7, 24]: 0.06 µg/mL (≈ 0.102 µM)
MIC50 ([7]; F. faecalis, TET NS, N=71): 0.12 µg/mL (≈ 0.205 µM)
MIC90 ([7]; F. faecalis, TET NS, N=71): 0.12 µg/mL (≈ 0.205 µM)
MIC50 ([7]; F. faecalis, TET S, N=30): 0.06 µg/mL (≈ 0.102 µM)
MIC90 ([7]; F. faecalis, TET S, N=30): 0.12 µg/mL (≈ 0.205 µM)
MIC50 [7, 25]: 0.12 µg/mL (≈ 0.205 µM)
MIC90 [7, 25]: 0.12 µg/mL (≈ 0.205 µM)
MIC50 [7, 26]: 0.12 µg/mL (≈ 0.205 µM)
MIC90 [7, 26]: 0.12 µg/mL (≈ 0.205 µM)
MIC50 [7, 14]: 0.06 µg/mL (≈ 0.102 µM)
MIC90 [7, 14]: 0.06 µg/mL (≈ 0.102 µM)
MIC50 [7, 27]: 0.06 µg/mL (≈ 0.102 µM)
MIC90 [7, 27]: 0.06 µg/mL (≈ 0.102 µM)
MIC50 ([7]; Streptococcus pyogenes, S. pyogenes, TET NS, N=6): 0.06 µg/mL (≈ 0.102 µM)
MIC50 [7, 28]: 0.06 µg/mL (≈ 0.102 µM)
MIC90 [7, 28]: 0.06 µg/mL (≈ 0.102 µM)
MIC EC1153 Tet(X) [8]: 2
MIC EC969 TetM [9]: 0.125
MIC EC970 TetK [10]: 0.0625
MIC EC1082 TetA [11]: 1
MIC EC1083 TetB [12]: 0.0625

CC(=O)NC[C@H]1CN(c2ccc(N3CCOCC3)c(F)c2)C(=O)O1 [linezolid, Linezolid]
log10 reduction in CFU versus the 48 hour untreated control [13]: 3.56±0.63 log10
MIC50 [2, 17]: 1 µg/mL (≈ 2.96 µM)
MIC90 [2, 18]: 2 µg/mL (≈ 5.93 µM)
MIC50 [2, 19]: 2 µg/mL (≈ 5.93 µM)
MIC90 [2, 20]: 4 µg/mL (≈ 11.9 µM)
MIC50 ([2]; Streptococcus anginosus, n=20): 0.5 µg/mL (≈ 1.48 µM)
MIC90 ([2]; Streptococcus anginosus, n=20): 1 µg/mL (≈ 2.96 µM)
MIC50 [2, 22]: 1 µg/mL (≈ 2.96 µM)
MIC90 [2, 22]: 1 µg/mL (≈ 2.96 µM)
MIC50 ([2]; Streptococcus mitis, n=29): 1 µg/mL (≈ 2.96 µM)
MIC90 ([2]; Streptococcus mitis, n=29): 1 µg/mL (≈ 2.96 µM)
MIC50 ([2]; Streptococcus sanguis, n=18, read-out: MIC50): 0.5 µg/mL (≈ 1.48 µM)
MIC90 ([2]; Streptococcus sanguis, n=18, read-out: MIC90): 1 µg/mL (≈ 2.96 µM)
